This note sets out measurements from ChEMBL document CHEMBL1131486, “Synthesis and pharmacological evaluation of ring-methylated derivatives of 3,4-(methylenedioxy)amphetamine (MDA)” (J Med Chem, 1998).

As usually defined, the IC50 is the concentration at which inhibition is half-maximal. Higher therefore signals lower potency. Broadly, the ED50 is the dose at which the effect has come halfway, by size or by number of responders.

The target in test [1] is T1, Norepinephrine transporter (Rattus norvegicus, UniProt Q9WTR4). Put plainly: (§1) Compound was tested for the ability to inhibit [3H]norepinephrine binding to Norepinephrine transporter in rat synaptosomes. Type of test: functional, subcellular, Brain.
Test [2] is filed under the species Rattus norvegicus. Put plainly: Effective dose for drug discrimination assay in rats using (+)-MBDB as training drug. The class given is functional.
Test [3] deals with Sodium-dependent serotonin transporter (Rattus norvegicus, UniProt P31652). Kind of test: Activity towards Serotonin transporter was determined by the ability to inhibit [3H]5-HT uptake in rat synaptosomes. The class given is subcellular, Brain.
The species entered for test [4] is Rattus norvegicus. Put plainly: Effective dose for drug discrimination assay in rats using DOIas training drug. Type of test: functional.
For test [5], the species on record is Rattus norvegicus. Put plainly: Effective dose for drug discrimination assay in rats using LSD as training drug. Type of test: functional.
The species named for test [6] is Rattus norvegicus. Kind of test: Effective dose for drug discrimination assay in rats using (+)-Amphitamine as training drug; NS = No substitution. The class given is functional, organism-based.
The species named for test [7] is Rattus norvegicus. Kind of test: Compound was tested for its ability to inhibit [3H]dopamine uptake in rat synaptosomes. Conditions: Brain. The class given is functional.
The species named for test [8] is Rattus norvegicus. Kind of test: Effective dose for drug discrimination assay in rats using MMAI as training drug. The class given is functional.
Test [9] can be described thus: selectivity is the ratio between IC50 values of 5-HTand DA.
For test [10], the species on record is Rattus norvegicus. Kind of test: Effective dose for drug discrimination assay in rats using LSD as training drug. The class given is functional.
The species named for test [11] is Rattus norvegicus. Put plainly: Effective dose for drug discrimination assay in rats using (+)-amphetamine as training drug. Type of test: functional.
For test [12], the target named is T1, Norepinephrine transporter. The test is described as §1. The class given is subcellular, Brain.
The species named for test [13] is Rattus norvegicus. Put plainly: Effective dose for drug discrimination assay in rats using DOI as training drug. The class given is functional.
Test [14] is filed under the species Rattus norvegicus. Put plainly: Effective dose for drug discrimination assay in rats using (+)-MBDB as training drug. Type of test: functional.

Activity calls are given as the source filed them. The calls are words filed in the database; no cut-off is given here.

Sodium-dependent serotonin transporter, sequence (P31652 whole entry): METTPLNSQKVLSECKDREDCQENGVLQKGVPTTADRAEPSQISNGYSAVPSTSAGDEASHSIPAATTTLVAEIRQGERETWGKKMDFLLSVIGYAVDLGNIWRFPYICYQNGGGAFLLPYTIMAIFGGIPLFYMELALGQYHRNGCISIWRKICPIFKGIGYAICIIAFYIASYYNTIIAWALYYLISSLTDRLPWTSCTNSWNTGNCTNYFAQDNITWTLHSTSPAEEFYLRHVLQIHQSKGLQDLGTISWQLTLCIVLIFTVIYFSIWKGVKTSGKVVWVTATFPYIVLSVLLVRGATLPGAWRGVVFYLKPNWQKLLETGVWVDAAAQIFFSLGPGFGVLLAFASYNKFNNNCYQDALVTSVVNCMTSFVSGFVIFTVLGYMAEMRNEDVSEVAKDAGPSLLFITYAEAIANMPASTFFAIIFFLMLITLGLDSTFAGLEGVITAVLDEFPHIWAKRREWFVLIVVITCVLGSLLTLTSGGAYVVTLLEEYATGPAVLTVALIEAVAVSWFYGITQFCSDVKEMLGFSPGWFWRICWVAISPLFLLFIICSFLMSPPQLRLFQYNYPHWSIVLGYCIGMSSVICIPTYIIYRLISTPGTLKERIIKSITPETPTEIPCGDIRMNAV
T1 sequence (Q9WTR4 whole entry): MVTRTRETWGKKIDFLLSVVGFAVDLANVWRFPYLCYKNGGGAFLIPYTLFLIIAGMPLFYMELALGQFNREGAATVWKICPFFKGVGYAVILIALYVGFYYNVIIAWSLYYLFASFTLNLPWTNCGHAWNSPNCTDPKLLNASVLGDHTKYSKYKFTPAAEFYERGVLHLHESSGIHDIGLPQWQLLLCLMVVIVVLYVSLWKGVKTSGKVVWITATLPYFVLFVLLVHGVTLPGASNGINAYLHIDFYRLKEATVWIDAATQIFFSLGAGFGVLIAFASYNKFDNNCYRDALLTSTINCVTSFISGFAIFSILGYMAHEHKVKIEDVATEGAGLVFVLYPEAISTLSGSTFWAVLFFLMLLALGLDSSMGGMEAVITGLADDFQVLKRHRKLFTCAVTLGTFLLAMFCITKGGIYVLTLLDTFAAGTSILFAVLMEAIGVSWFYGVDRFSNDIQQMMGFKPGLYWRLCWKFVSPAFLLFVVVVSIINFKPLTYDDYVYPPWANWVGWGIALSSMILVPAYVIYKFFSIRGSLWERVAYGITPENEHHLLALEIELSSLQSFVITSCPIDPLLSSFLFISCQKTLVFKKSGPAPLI

Consider `Cc1c(CC(C)N)ccc2c1OCO2` (stereo not drawn), for which the IC50 in [1] amounted to 1940 nM; in test [3] it was 93 nM; in the test filed under Rattus norvegicus [7], 12000 nM. In addition, the ED50 came to 1.83 µmol/kg in the test listed under Rattus norvegicus [2], 1.7 µmol/kg in the test filed under Rattus norvegicus [4], 4.1 µmol/kg in the test filed under Rattus norvegicus [5] and 1.71 µmol/kg in the test listed under Rattus norvegicus [8]. In addition, the ED50 result in the test listed under Rattus norvegicus [6] was “inactive”. In addition, the Selectivity in test [9] came to 129.

`CCN(CC)C(=O)[C@@H]1C=C2c3cccc4[nH]cc(c34)C[C@H]2N(C)C1` [LYSERGIDE]: in the test listed under Rattus norvegicus [10], the ED50 amounted to 0.04 µmol/kg.

`C[C@H](N)Cc1ccccc1` [DEXTROAMPHETAMINE] yielded an ED50 in the test listed under Rattus norvegicus [11] of 1.06 µmol/kg.

Turning to `CC(N)Cc1ccc2c(c1)CCC2` (stereo not drawn), the half-inhibitory concentration (IC50) in test [3] was 82 nM; in test [12], 849 nM. Further, the Selectivity in [9] came out at 23.

For `COc1cc2c(cc1C)CC(N)C2` (stereo not drawn), it took a dose of 1.83 µmol/kg to reach the 50% effect level in the test listed under Rattus norvegicus [8] (ED50).

For the molecule `COc1cc(CC(C)N)c(OC)cc1I` (stereo not drawn), the ED50 in the test listed under Rattus norvegicus [13] turned out to be 0.3 µmol/kg.

`CC(N)Cc1ccc2c(c1)OCO2` (stereo not drawn) [TENAMFETAMINE] registered an ED50 in the test listed under Rattus norvegicus [2] of 2.07 µmol/kg. The IC50 is 478 nM in test [3], 890 nM in the test filed under Rattus norvegicus [7] and 266 nM in [12]. In addition, in the test filed under Rattus norvegicus [6], the ED50 result is “inactive”. Besides, the Selectivity in test [9] stood at 2.

Take `Cc1cc(CC(C)N)cc2c1OCO2` (stereo not drawn): the ED50 in the test listed under Rattus norvegicus [2] is 2 µmol/kg; in the test filed under Rattus norvegicus [4], 2.11 µmol/kg; in the test filed under Rattus norvegicus [5], 8.72 µmol/kg; in the test filed under Rattus norvegicus [8] it was 1.53 µmol/kg. Besides, the IC50 in [3] was determined as 107 nM; in the test listed under Rattus norvegicus [7] it was 11600 nM; in test [12], 1490 nM. Also, the ED50 entry in the test filed under Rattus norvegicus [6] was “inactive”. Further, in [9], the Selectivity was found to be 108.

On to `CC(N)Cc1ccc(I)cc1` (stereo not drawn) [p-IODOAMPHETAMINE], for which the half-maximal inhibitory concentration (IC50) in [3] turned out to be 82 nM; in the test filed under Rattus norvegicus [7], 589 nM; in [12], 993 nM. Also, the Selectivity in test [9] was determined as 7.

For the molecule `Cc1cc2c(cc1CC(C)N)OCO2` (stereo not drawn), the figures for the IC50 (in test [3]; in the test filed under Rattus norvegicus [7]; in test [12]) were 783 nM, 28300 nM and 4600 nM, respectively. In addition, the ED50 in the test listed under Rattus norvegicus [14] was 17.4 µmol/kg; in the test filed under Rattus norvegicus [4], 8.72 µmol/kg; in the test listed under Rattus norvegicus [5], 17.4 µmol/kg; in the test filed under Rattus norvegicus [8] it was 7.65 µmol/kg. Further, in the test listed under Rattus norvegicus [6], the ED50 result was “inactive”. Further, the Selectivity in test [9] came to 36.

`CSc1ccc(CC(C)N)cc1` (stereo not drawn) [4-METHYLTHIOAMPHETAMINE]: the IC50 in test [3] turned out to be 74 nM; in the test listed under Rattus norvegicus [7], 3070 nM; in test [12], 2380 nM. Further, the Selectivity in test [9] worked out at 42.
